# Assay results taken from PMC11397024, “Strategic Fluorination to Achieve a Potent, Selective, Metabolically Stable, and Orally Bioavailable Inhibitor of CSNK2” (Molecules, 2024).
# Legend:
# [1] = Unbound fraction in mouse plasma; assay type: in vitro ADME; conditions: read-out: unbound fraction in mouse plasma (fu)
# DYRK1A = biological target: T1, DYRK1A (Homo sapiens, UniProt Q13627); experiment: NanoBRET dose-response DYRK1A; assay type: cell-based; conditions: IC50 not determined, poor assay window
# T1 construct: purchased Promega (NanoBRET Target Engagement K192 Kinase Selectivity System)
# A549-ACE2 cells = experiment: CellTiter-Glo cytotoxicity assay; assay type: cell-based, Human
# Protocol: (§1) A549-ACE2 cells were maintained in low-glucose DMEM (Gibco, Waltham, MA, USA) supplemented with 10% FBS, 1% NEAA, and 1% L-glutamine. No antibiotics were used. Cells were plated at 2000 cells/well in a 384-well plate (Costar, Glendale, AZ, USA) and incubated overnight (37 °C, 5% CO2) before adding the compound. Compounds were added in quadruplicate and incubated for 48 h. DMSO percentage was constant across all concentrations of the compound. Cell viability was measured using CellTiter-Glo2 (Promega, Madison, WI, USA) and the luminescence signal was read on a GloMax plate reader (Promega, Madison, WI, USA). Dose–response analysis was performed using GraphPad Prism.
# [2] = CellTiter-Glo cytotoxicity assay; assay type: cell-based, Human; conditions: human, A549-ACE2 cells, 48 h, CellTiter-Glo, quadruplicate
# Protocol: as §1
# PHKG1 = biological target: T2, PHKG1 (Homo sapiens, UniProt Q16816); experiment: NanoBRET dose-response PHKG1; assay type: cell-based; conditions: highest concentration tested 30 μM
# T2 construct: purchased Promega (NanoBRET Target Engagement K192 Kinase Selectivity System)
# T2 sequence (Q16816 whole entry): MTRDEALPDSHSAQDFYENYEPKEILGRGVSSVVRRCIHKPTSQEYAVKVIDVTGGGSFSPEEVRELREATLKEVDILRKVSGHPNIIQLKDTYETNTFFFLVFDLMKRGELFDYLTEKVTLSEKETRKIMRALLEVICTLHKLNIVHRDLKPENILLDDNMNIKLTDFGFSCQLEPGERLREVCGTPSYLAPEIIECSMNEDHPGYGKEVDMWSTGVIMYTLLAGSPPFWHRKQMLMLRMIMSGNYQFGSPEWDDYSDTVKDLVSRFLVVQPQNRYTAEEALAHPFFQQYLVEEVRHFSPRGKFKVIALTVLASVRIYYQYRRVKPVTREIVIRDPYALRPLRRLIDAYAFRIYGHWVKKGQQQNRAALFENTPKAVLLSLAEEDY
# SARS-CoV-2 = SARS-CoV-2 assay in A549-ACE2 cells; assay type: cell-based
# [3] = tested on: mouse hepatitis virus (MHV); experiment: MHV assay (MHV-nLuc in DBT cells); conditions: Murine coronavirus, read-out: MHV pIC50 (converted)
# Protocol: DBT cells were cultured at 37 °C in Dulbecco’s modified Eagle medium (DMEM; Sigma-Aldrich, St. Louis, MO, USA) supplemented with 10% fetal bovine serum (FBS; Avantor, Randor, PA, USA) and penicillin and streptomycin (Sigma-Aldrich, St. Louis, MO, USA). DBT cells were plated in 96-well plates to be 80% confluent at the start of the assay. Test compounds or positive control EIDD-1931 were diluted to 15 μM in DMEM. Serial 4-fold dilutions were made in DMEM, providing a concentration range of 15–0.22 μM. Media were aspirated from the DBT cells, and 100 μL of the diluted test compounds was added to the cells for 1 h at 37 °C. After 1 h, MHV-nLuc5 was added at an MOI of 0.1 in 50 μL of DMEM so that the final concentration of the first dilution of the compound was 10 μM (T = 0). After 10 h, the media were aspirated, and the cells were washed with PBS and lysed with passive lysis 5X buffer (Promega, Madison, WI, USA) for 20 min at room temperature. Relative light units (RLUs) were measured using a luminometer (Promega; GloMax, Madison, WI, USA). Triplicate data were analyzed in GraphPad Prism version 9.4.1 for macOS to generate IC50 values.
# CSNK2A1 = biological target: T3, CSNK2A1 (Homo sapiens, UniProt P68400); experiment: NanoBRET assay CSNK2A1; assay type: cell-based; conditions: HEK293 cells, singlicate, read-out: CSNK2A1 pIC50 (converted)
# T3 construct: expressed in transfected cells; host or cells: HEK293
# T3 sequence (P68400 whole entry): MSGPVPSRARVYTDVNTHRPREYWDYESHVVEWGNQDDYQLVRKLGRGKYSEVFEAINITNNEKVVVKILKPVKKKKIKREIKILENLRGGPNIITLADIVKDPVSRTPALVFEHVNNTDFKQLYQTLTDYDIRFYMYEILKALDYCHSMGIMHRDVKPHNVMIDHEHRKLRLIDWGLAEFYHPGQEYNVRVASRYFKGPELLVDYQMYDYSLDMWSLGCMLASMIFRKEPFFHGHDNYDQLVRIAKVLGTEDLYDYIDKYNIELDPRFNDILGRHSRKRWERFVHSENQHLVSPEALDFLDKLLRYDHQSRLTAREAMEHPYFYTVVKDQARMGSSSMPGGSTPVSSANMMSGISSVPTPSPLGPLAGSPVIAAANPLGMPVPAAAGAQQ
# Protocol: Assays were run using a modified version of the previously published protocols. […] A transfection complex of DNA (10 μg/mL) was generated consisting of 9 μg/mL carrier DNA (Promega, Madison, WI, USA) and 1 μg/mL CSNK2A-NLuc fusion DNA in Opti-MEM without serum (Gibco). FuGENE HD (Promega) was added at 30 μL/mL to form a lipid–DNA complex. The solution was then mixed and incubated at room temperature for 20 min. The transfection complex was mixed with a 20× volume of HEK293 cells in DMEM/FBS to arrive at a final concentration of 200,000 cells/mL, and 100 μL/well was added to a 96-well plate that was incubated overnight at 37 °C and 5% CO2. The following day, the medium was removed via aspiration and replaced with 85 μL of Opti-MEM without phenol red. A total of 5 μL per well of 20× NanoBRET Tracer K10 (Promega) at 10 μM for CSNK2A1 or 5 μM for CSNK2A2 in Tracer Dilution Buffer (Promega N291B) was added to all wells, except the “no tracer” control wells. Test compounds (10 mM in DMSO) were diluted 100× in Opti-MEM media to prepare stock solutions and evaluated at 11 concentrations. A total of 10 μL per well of the 10-fold test compound stock solutions (final assay concentration of 0.1% DMSO) were added. […] The plates were read within 30 min on a GloMax Discover luminometer (Promega) equipped with a 450 nm BP filter (donor) and 600 nm LP filter (acceptor) using 0.3 s of integration time. […]
smiles,measurement,setting,value
"CCC(=O)Nc1cc(Nc2cc(NC3CC3)n3ncc(C#N)c3n2)c(F)cc1N1CCC[C@H](NC)C1 [Compound 2, (S)-N-(5-((3-cyano-7-(cyclopropylamino)pyrazolo[1,5-a]pyrimidin-5-yl)amino)-4-fluoro-2-(3-(methylamino)piperidin-1-yl)phenyl)propionamide]",fraction unbound,[1],0.0605
same,occupancy in the dose-response experiment,DYRK1A,no occupancy was observed up to 10 μM
same,cytotoxicity in A549-ACE2 cells,A549-ACE2 cells; 0.1 μM,no toxicity
same,cytotoxicity in A549-ACE2 cells,A549-ACE2 cells; 1.0 μM,low toxicity
same,"viability at 48 h, 0.1 µM",[2]; 0.1 μM,100%
same,"viability at 48 h, 1 µM",[2]; 1.0 μM,76%
same,IC50,PHKG1,> 30000 nM
same,IC90,SARS-CoV-2; Severe acute respiratory syndrome coronavirus 2,2200 nM
same,IC50,"SARS-CoV-2; Severe acute respiratory syndrome coronavirus 2, triplicate, read-out: SARS-CoV-2 pIC50 (converted)",316 nM
same,IC50,[3],158 nM
same,IC50,CSNK2A1,7.94 nM
